Columns and labels:
[1] = system: HBV viral load, AD38 cells; test: Activity of test compounds on viral production from AD38 cells (viral load by quantitative PCR of the core sequence in supernatant); format: cell-based, Hepatitis B virus; details: Hepatitis B virus, 144 h, 10 μM compound, 6 days at 37° C., vs DMSO control wells; Table 6; read-out: AD38 Viral Load (CpAM/DMSO %) at 10 μM
Method: (§1) AD38 cells were then re-suspended with 10 mL of treatment medium and counted. Wells of a collagen coated 96-well NUNC microtiter plate were seeded at 50,000/well in 180 μL of treatment medium, and 20 μL of either 10% DMSO (Control) or a 10× solution of test compound in 10% DMSO in treatment media was added for a final compound concentration 1, 3, or 10 μM (1.0% final [DMSO]) and plates were incubated for 6 days at 37° C.
Subsequently viral load production was assayed by quantitative PCR of the core sequence. Briefly, 5 μL of clarified supernatant was added to a PCR reaction mixture that contained forward primers HBV-f 5′-CTGTGCCTTGGGTGGCTTT-3′, Reverse primers HBV-r 5′-[…]-3′ and Fluorescent TaqMan™ Probes HBV-probe 5′-FAM/AGCTCCAAA/ZEN/[…]/3IABkFQ-3′ in Quanta Biosciences PerfeCTa® qPCR Toughmix®, and was subsequently on an Applied Biosystems VIIA7 in a final volume of 20 μL. The PCR mixture was incubated at 45° C. for 5 minutes, then 95° C. for 10 min, followed by 40 cycles of 10 seconds at 95° C. and 20 seconds at 60° C. Viral load was quantitated against known standards by using ViiA™ 7 Software. Viral load in the supernatant from wells with treated cells were compared against viral load in supernatant from DMSO control wells (≥3 per plate).

AD38 cells = test: AD38 viability normalized to DMSO control; format: cell-based; details: 10 μM compound, vs DMSO control; Table 6
Method: as §1

| Structure (SMILES) | activity at 10 µM [1] | AD38 Viability Normalized Result (CPAM/DMSO %) at 10 μM (AD38 cells) |
| --- | --- | --- |
| COc1ccc(S(=O)(=O)N2CCN(c3nc(C)cc(Nc4ccncc4)n3)CC2)cc1 [Compound 1240] | 46% | 102% |
| COc1ccc(S(=O)(=O)N2CCN(c3nc(Nc4ccc(C)cc4)cc(N4CCSCC4)n3)CC2)cc1 [Compound 1241, 2-(4-((4-methoxyphenyl)sulfonyl)piperazin-1-yl)-6-thiomorpholino-N-(p-tolyl) pyrimidin-4-amine] | 65% | 98% |
| COc1ccc(S(=O)(=O)N2CCN(c3nc(Nc4ccc(C)cc4)cc(-c4nccs4)n3)CC2)cc1 [Compound 1242] | 30% | 103% |
| CNc1cc(Nc2ccc(C)cc2)nc(N2CCN(S(=O)(=O)c3ccc(OC)cc3)CC2)n1 [Compound 1243] | 32% | 109% |
| Cc1ccc(Nc2cc(C)nc(N3CCN(S(=O)(=O)c4ccc(N)nc4)CC3)n2)cc1 [Compound 1245] | 70% | 99% |
| COc1ccc(S(=O)(=O)N2CCN(c3nc(Nc4ccc(C)cc4)cc(-n4nccn4)n3)CC2)cc1 [Compound 1247] | 6% | 98% |
| COc1ccc(S(=O)(=O)N2CCN(c3nc(Nc4ccc(C)cc4)cc(N(C)C(C)C)n3)CC2)cc1 [Compound 1248] | 8% | 33% |
| COc1ccc(S(=O)(=O)N2CCN(c3nc(Nc4ccc(C)cc4)cc(NC(C)(C)C)n3)CC2)cc1 [Compound 1249] | 31% | 65% |
| COc1ccc(S(=O)(=O)N2CCN(c3nc(Nc4ccc(C)cc4)cc(-c4ccccn4)n3)CC2)cc1 [Compound 1250, 2-(4-((4-methoxyphenyl)sulfonyl)piperazin-1-yl)-6-(pyridin-2-yl)-N-(p-tolyl) pyrimidin-4-amine] | 56% | 101% |
| COc1ccc(S(=O)(=O)N2CCN(c3nc(NCCN(C)C)cc(Nc4ccc(C)cc4)n3)CC2)cc1 [Compound 1251] | 60% | 56% |
| Cc1ccc(Nc2cc(C)nc(N3CCN(S(=O)(=O)c4ccncc4)CC3)n2)cc1 [Compound 1258] | 50% | 105% |
| Cc1ccc(Nc2cc(C)nc(N3CCN(S(=O)(=O)c4cnc(N)nc4)CC3)n2)cc1 [Compound 1260] | 78% | 98% |
| COc1ccc(S(=O)(=O)N2CCN(c3nc(C)cc(Nc4ncc(C)cn4)n3)CC2)cc1 [Compound 1261] | 87% | 98% |
| COc1ccc(S(=O)(=O)N2CCN(c3nc(Nc4ccc(C)cc4)cc(OCCO)n3)CC2)cc1 [Compound 1265, 2-((2-(4-((4-methoxyphenyl)sulfonyl)piperazin-1-yl)-6-(p-tolylamino)pyrimidin-4-yl)oxy) ethan-1-ol] | 13% | 102% |
| COc1ccc(S(=O)(=O)N2CCN(c3nc(Nc4ccc(C)cc4)cc(N(C)C(C)(C)C)n3)CC2)cc1 [Compound 1273, N^4-(tert-butyl)-2-(4-((4-methoxyphenyl)sulfonyl)piperazin-1-yl)-N^4-methyl-N^6-(p-tolyl) pyrimidine-4,6-diamine] | 16% | 98% |
| COc1ccc(S(=O)(=O)N2CCN(c3nc(Nc4ccc(C)cc4)cc(-c4ncc[nH]4)n3)CC2)cc1 [Compound 1274, 6-(1H-imidazol-2-yl)-2-(4-((4-methoxyphenyl)sulfonyl)piperazin-1-yl)-N-(p-tolyl) pyrimidin-4-amine] | 19% | 92% |
| COc1ccc(S(=O)(=O)N2CCN(c3nc(Nc4ccc(C)cc4)cc(-n4cnnc4)n3)CC2)cc1 [Compound 1282, 2-(4-((4-methoxyphenyl)sulfonyl)piperazin-1-yl)-N-(p-tolyl)-6-(4H-1,2,4-triazol-4-yl) pyrimidin-4-amine] | 22% | 99% |
| Cc1ccc(Nc2cc(C)nc(N3CCN(S(=O)(=O)c4cc(C(=O)Nc5cc(F)c(F)c(F)c5)ccc4F)CC3)n2)cc1 [Compound 1286, 4-fluoro-3-((4-(4-methyl-6-(p-tolylamino)pyrimidin-2-yl)piperazin-1-yl)sulfonyl)-N-(3,4,5-trifluorophenyl) benzamide] | 2% | 86% |
| CC(C)c1cc(Oc2ccc(F)cc2)nc(N2CCN(S(=O)(=O)c3cccc(C(F)(F)F)c3)CC2)n1 [Compound 1287] | 77% | 98% |
| Cc1ccc(S(=O)(=O)N2CCN(c3nc(Oc4ccc(F)cc4)cc(C(C)C)n3)CC2)cc1 [Compound 1288] | 102% | 105% |
| CN(C)c1cc(Oc2ccc(F)cc2)nc(N2CCN(S(=O)(=O)c3cccc(C(F)(F)F)c3)CC2)n1 [Compound 1289] | 55% | 105% |

| Structure (SMILES) | activity at 10 µM [1] | AD38 Viability Normalized Result (CPAM/DMSO %) at 10 μM (AD38 cells) |
| --- | --- | --- |
| Cc1ccc(S(=O)(=O)N2CCN(c3nc(Oc4ccc(F)cc4)cc(N(C)C)n3)CC2)cc1 [Compound 1290] | 62% | 105% |
| CC(C)c1cc(Oc2ccc(F)cc2)nc(N2CCN(S(=O)(=O)c3ccc(F)cc3)CC2)n1 [Compound 1295] | 84% | 101% |
| CC(C)c1cc(Oc2ccc(F)cc2)nc(N2CCN(S(=O)(=O)c3ccc(C(F)(F)F)cc3)CC2)n1 [Compound 1296] | 102% | 103% |
| CN(C)c1cc(Oc2ccc(F)cc2)nc(N2CCN(S(=O)(=O)c3ccc(F)cc3)CC2)n1 [Compound 1297] | 59% | 103% |
| CN(C)c1cc(Oc2ccc(F)cc2)nc(N2CCN(S(=O)(=O)c3ccc(C(F)(F)F)cc3)CC2)n1 [Compound 1298] | 100% | 97% |
| CN(C)c1cc(Oc2ccc(F)cc2)nc(N2CCN(S(=O)(=O)c3ccccc3)CC2)n1 [Compound 1299] | 54% | 112% |
| CC(C)c1cc(Oc2ccc(F)cc2)nc(N2CCN(S(=O)(=O)c3ccccc3)CC2)n1 [Compound 1301] | 63% | 102% |
| CN(C)c1cc(Nc2ccc(F)cc2)nc(N2CCN(S(=O)(=O)c3ccc(F)cc3)CC2)n1 [Compound 1302] | 52% | 112% |
| CN(C)c1cc(Nc2ccc(F)cc2)nc(N2CCN(S(=O)(=O)c3ccc(C(F)(F)F)cc3)CC2)n1 [Compound 1303] | 14% | 35% |
| CN(C)c1cc(Nc2ccc(F)cc2)nc(N2CCN(S(=O)(=O)c3ccccc3)CC2)n1 [Compound 1304] | 48% | 113% |
| CN(C)c1cc(Nc2ccc(F)cc2)nc(N2CCN(S(=O)(=O)c3cccc(C(F)(F)F)c3)CC2)n1 [Compound 1305] | 4% | 6% |
| Cc1ccc(S(=O)(=O)N2CCN(c3nc(Nc4ccc(F)cc4)cc(N(C)C)n3)CC2)cc1 [Compound 1306] | 22% | 103% |
| O=S(=O)(c1ccc(F)cc1)N1CCN(c2nc(Oc3ccc(F)cc3)cc(-n3cnnc3)n2)CC1 [Compound 1307] | 84% | 94% |
| O=S(=O)(c1ccc(C(F)(F)F)cc1)N1CCN(c2nc(Oc3ccc(F)cc3)cc(-n3cnnc3)n2)CC1 [Compound 1308] | 63% | 88% |
| O=S(=O)(c1cccc(C(F)(F)F)c1)N1CCN(c2nc(Oc3ccc(F)cc3)cc(-n3cnnc3)n2)CC1 [Compound 1309] | 26% | 67% |
| Cc1ccc(S(=O)(=O)N2CCN(c3nc(Oc4ccc(F)cc4)cc(-n4cnnc4)n3)CC2)cc1 [Compound 1310] | 50% | 81% |
| O=S(=O)(c1ccccc1)N1CCN(c2nc(Oc3ccc(F)cc3)cc(-n3cnnc3)n2)CC1 [Compound 1311] | 66% | 86% |
| O=S(=O)(c1ccc(F)cc1)N1CCN(c2nc(Nc3ccc(F)cc3)cc(-n3cnnc3)n2)CC1 [Compound 1312] | 31% | 96% |
| O=S(=O)(c1cccc(C(F)(F)F)c1)N1CCN(c2nc(Nc3ccc(F)cc3)cc(-n3cnnc3)n2)CC1 [Compound 1313] | 47% | 93% |
| O=S(=O)(c1ccccc1)N1CCN(c2nc(Nc3ccc(F)cc3)cc(-n3cnnc3)n2)CC1 [Compound 1314] | 36% | 94% |
